Assay results from the supplement of paper PMC10307832.

Key:
Assay in all cases: relative viability (nuclei count vs DMSO), 5 days (fraction); higher = more cells survive
[1] = compound: CC(C)C[C@@H](C(=O)N[C@H](C(=O)OC1CCCC1)c1ccccc1)[C@H](O)C(=O)NO [Tosedostat]
How it was run: (§1)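 Following overnight incubation at 37 °C, lung cancer cell lines in 1536-well plates were pinned with five library-drug doses (not always all listed) in √10 steps on vehicle-anchored plates. The cells then spent 5 days without medium change before a combined fix, permeabilisation and Hoechst stain, 4× imaging and MetaXpress nuclear counts. Viability is the treated-to-vehicle ratio of nuclei, taken as the median across plates. Only plates with control CV below 25% and at least one doubling passed.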

[2] = compound: CC1=NN=C(O1)C2=NN=C(C=C2)N3CCC(CC3)OC4=C(C=CC(=C4)F)Cl
How it was run: as §1

[3] = compound: CC1=NN=C(O1)C2=NN=C(C=C2)N3CCC(CC3)OC4=C(C=CC(=C4)F)Cl + Nc1nc2[nH]cc(CCc3ccc(C(=O)N[C@@H](CCC(=O)O)C(=O)O)cc3)c2c(=O)[nH]1 [Pemetrexed] (partner 0.2 µM)
How it was run: (§2)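 After 5 days of treatment, lung cancer cells in 1536-well plates were fixed and stained in a single step (final 0.05% Triton X-100, 1% formaldehyde, 1 ug/ml Hoechst) and their nuclei counted on 4× images. Treatment had been applied by pin tool the day after seeding as one drug alone or as a fixed anchor-drug dose with five library-drug doses (not always all listed) in √10 steps. Relative viability is the nuclei count of treated wells divided by that of vehicle wells, and values are medians of duplicate plates.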

[4] = compound: CC(C)C[C@@H](C(=O)N[C@H](C(=O)OC1CCCC1)c1ccccc1)[C@H](O)C(=O)NO [Tosedostat] + Cc1nc(NC(=O)N2CCC[C@H]2C(N)=O)sc1-c1ccnc(C(C)(C)C(F)(F)F)c1 [Alpelisib] (partner 2 µM)
How it was run: as §2

Cell Line	relative viability ([1]; 0.02 µM)	relative viability ([1]; 0.06325 µM)	relative viability ([1]; 0.2 µM)	relative viability ([1]; 0.6325 µM)	relative viability ([1]; 2 µM)	relative viability ([2]; 0.253 µM)	relative viability ([2]; 0.8 µM)	relative viability ([2]; 2.53 µM)	relative viability ([2]; 8 µM)	relative viability ([3]; first compound 0.253 µM)	relative viability ([3]; first compound 0.8 µM)	relative viability ([3]; first compound 2.53 µM)	relative viability ([3]; first compound 8 µM)	relative viability ([4]; first compound 0.02 µM)	relative viability ([4]; first compound 0.06325 µM)	relative viability ([4]; first compound 0.2 µM)	relative viability ([4]; first compound 0.6325 µM)	relative viability ([4]; first compound 2 µM)
NCI-H596	1.03	1.08	1.12	1.01	0.967	0.982	0.806	1.06	0.813	0.52	0.494	0.476	0.394	0.48	0.51	0.483	0.619	0.552
NCI-H647	1.02	1.01	1.02	0.977	0.883	0.65	0.642	0.66	0.413	0.11	0.158	0.13	0.111	1.3	1.13	1.02	1.09	1.14
NCI-H650	1.07	0.988	0.731	0.787	0.789	0.927	0.72	0.865	0.71	0.943	0.65	0.781	0.814	1	1.15	1.14	0.97	0.683
NCI-H661	1.01	0.991	0.948	0.926	0.934	0.859	0.816	0.731	0.71	0.736	0.695	0.676	0.652	0.736	0.627	0.428	0.594	0.531
NCI-H838	0.965	0.957	0.951	1.01	1.11	0.885	0.752	0.886	0.78	0.235	0.251	0.215	0.23	1.03	0.903	1	1.04	1.17
NCI-H1355	0.961	0.936	1.04	0.838	0.905	0.685	0.592	0.915	0.82	0.715	0.562	0.949	0.874	0.704	0.798	0.854	0.667	0.688
NCI-H1395	0.894	0.938	0.972	0.889	0.78	0.823	0.762	0.813	0.882	0.69	0.668	0.831	0.812	1.03	0.922	0.965	0.791	0.876
NCI-H1437	1	0.987	1.05	0.97	0.889	0.741	0.642	0.707	0.632	0.24	0.282	0.232	0.218	0.984	1.05	0.969	0.828	0.506
NCI-H1563	1.03	1.07	1.05	1.13	1.08	0.986	0.954	0.995	0.993	0.735	0.878	0.825	0.648	0.879	1	0.956	1.16	1.1
